Measured values: the supplement of paper PMC10307832

Assays:
Assay in all cases: relative viability (nuclei count vs DMSO), 5 days (fraction); higher = more cells survive
Motesanib + Alpelisib = compound: CC1(C)CNc2cc(NC(=O)c3cccnc3NCc3ccncc3)ccc21 [Motesanib] + Cc1nc(NC(=O)N2CCC[C@H]2C(N)=O)sc1-c1ccnc(C(C)(C)C(F)(F)F)c1 [Alpelisib] (partner 2 µM)
Outline: (§1)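 Each reported value is a median over duplicate plates. It expresses relative viability: treated-well nuclei count divided by vehicle-well nuclei count. Lung cancer cell lines in 1536-well plates were dosed by pin tool a day after seeding, alone with one drug or with a fixed anchor-drug dose plus five library-drug doses (not always all listed) in √10 steps, and nuclei were counted after 5 days.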

Motesanib + Dasatinib = compound: CC1(C)CNc2cc(NC(=O)c3cccnc3NCc3ccncc3)ccc21 [Motesanib] + Cc1nc(Nc2ncc(C(=O)Nc3c(C)cccc3Cl)s2)cc(N2CCN(CCO)CC2)n1 [Dasatinib] (partner 0.075 µM)
Outline: as §1

[1] = compound: C[C@@]1(C(=O)Nc2ccc(F)nc2)CCCN1c1nc(Nc2cc(C3CC3)n[nH]2)c2cccn2n1 + COc1cc2c(Oc3ccc(NC(=O)C4(C(=O)Nc5ccc(F)cc5)CC4)cc3F)ccnc2cc1OCCCN1CCOCC1 [Foretinib] (partner 0.25 µM)
Outline: as §1

[2] = compound: C[C@@]1(C(=O)Nc2ccc(F)nc2)CCCN1c1nc(Nc2cc(C3CC3)n[nH]2)c2cccn2n1 + C[C@@H](Oc1cc(-c2cnn(C3CCNCC3)c2)cnc1N)c1c(Cl)ccc(F)c1Cl [Crizotinib] (partner 1 µM)
Outline: as §1

Row | Cell Line | relative viability (Motesanib + Alpelisib; first compound 0.01 µM) | relative viability (Motesanib + Alpelisib; first compound 0.03162 µM) | relative viability (Motesanib + Alpelisib; first compound 0.1 µM) | relative viability (Motesanib + Alpelisib; first compound 0.3162 µM) | relative viability (Motesanib + Alpelisib; first compound 1 µM) | relative viability (Motesanib + Dasatinib; first compound 0.01 µM) | relative viability (Motesanib + Dasatinib; first compound 0.03162 µM) | relative viability (Motesanib + Dasatinib; first compound 0.3162 µM) | relative viability (Motesanib + Dasatinib; first compound 1 µM) | relative viability ([1]; first compound 0.04 µM) | relative viability ([1]; first compound 0.1265 µM) | relative viability ([1]; first compound 0.4 µM) | relative viability ([1]; first compound 1.265 µM) | relative viability ([2]; first compound 0.04 µM) | relative viability ([2]; first compound 0.1265 µM) | relative viability ([2]; first compound 0.4 µM) | relative viability ([2]; first compound 1.265 µM) | relative viability (Motesanib + Dasatinib; first compound 0.1 µM)
1 | NCI-H1734 | 0.711 | 0.608 | 0.719 | 0.72 | 0.746 | 0.515 | 0.448 | 0.463 | 0.405 | 0.603 | 0.494 | 0.336 | 0.408 | 0.554 | 0.51 | 0.358 | 0.509 | 
2 | NCI-H1755 | 0.879 | 0.905 | 1.02 | 1.03 | 0.909 | 0.381 | 0.426 | 0.48 | 0.466 | 0.914 | 0.729 | 0.85 | 0.89 | 0.919 | 0.793 | 0.756 | 0.836 | 0.463
3 | NCI-H1915 | 1.02 | 1.02 | 1.03 | 1.02 | 1.06 | 0.32 | 0.329 | 0.312 | 0.279 | 1.11 | 1.04 | 1.04 | 1.18 | 0.932 | 0.874 | 0.898 | 0.952 | 0.303
4 | NCI-H1944 | 0.785 | 0.853 | 0.89 | 0.885 | 0.855 | 0.205 | 0.215 | 0.225 | 0.231 | 0.764 | 0.676 | 0.496 | 0.649 | 0.981 | 1.03 | 0.875 | 1.17 | 0.25
5 | NCI-H1975 | 0.681 | 0.588 | 0.615 | 0.61 | 0.675 | 0.363 | 0.328 | 0.324 | 0.312 | 0.861 | 0.962 | 0.88 | 0.716 | 0.962 | 0.929 | 0.899 | 0.486 | 0.397
6 | NCI-H1993 | 0.656 | 0.659 | 0.765 | 0.697 | 0.642 | 0.629 | 0.509 | 0.63 | 0.588 | 0.659 | 0.67 | 0.532 | 0.555 | 0.663 |  | 0.64 | 0.633 | 0.639
7 | NCI-H2009 | 1.15 | 1.18 | 1.17 | 1.19 | 1.15 | 0.286 | 0.245 | 0.314 | 0.346 | 1.23 | 1.25 | 1.1 | 1.14 | 1.06 | 1.01 | 0.966 | 0.541 | 0.304
8 | NCI-H2023 | 0.628 | 0.669 | 0.68 | 0.619 | 0.648 | 0.576 | 0.476 | 0.59 | 0.662 | 0.488 | 0.475 | 0.36 | 0.279 | 0.467 | 0.424 | 0.318 | 0.119 | 0.575
